Entries after “also recorded” stand apart in the source; their conditions may differ.
Experiments:
Aβ (1-42)-heme complex = target: T1, Aβ (1-42)-heme complex (Homo sapiens, UniProt P05067); assay: Peroxidase assay of Aβ-heme complex on TMB; type: biochemical; settings: equimolar addition of NCR247
T1 construct: equimolar addition of NCR247 to the Aβ (1-42) amyloid peptide-heme complex; purchased Genscript

[1] = Biolayer interferometry of heme binding
Text: Biotinylation of heme: Hemin was biotinylated using the method exactly as described previouslyl^16. Biotin hydrazide, DCC was purchased from Sigma. COSMOSIL™ 5C18-AR-II Packed Column, 4.6 mm I.D.×150 mm from Nacalai USA (San Diego, CA) was used to separate the products. LC-MS was used to verify the correct molecular weight (969.4 Da) of biotinylated heme (in which only one of the two propionate groups of protoheme was conjugated with biotin hydrazide) as described above.
Biolayer interferometry: Biolayer interferometry was carried out using a ForteBio Octet RED96™ biolayer interferometer, following the manufacturer's instructions for a standard kinetic assay. Streptavidin-coated biosensor tips were incubated in 200 μl assay buffer (Water [pH 7.4]), each for 60s. Then biotinylated heme (or NCR247 in the case of Fe(III) PPIX dimethyl ester chloride) was loaded onto each biosensor tip at the defined concentration until the binding signal reached a value of >1.4. Biosensor tip loading was followed by incubation in assay buffer for 60s. Association between the ligand-heme and the analyte-various variants of NCR247 (Increasing concentrations in assay buffer) was observed over a time frame of ˜116 s, in assay buffer. To stop binding kinetics for dissociation, the biosensor tips were placed back into assay buffer not containing any analyte, for 120 s. Curves were fit with Global fit analysis and Data analysis and KD calculation was performed using Fortebio™ data analyses 8.2 software as described previously^89.

Porphyromonas gingivalis = assay: Cell viability assay for P. gingivalis; type: cell-based; settings: 48 hours, anaerobic, Brucella Broth
Description: Cell viability assays for H. influenza and P. gingivalis: Haemophilus influenzae Rd [KW20] was obtained from ATCC (51907). Standard growth and culturing techniques were followed as described previously^92. Cultures were grown in Brain Heart Infusion broth (BHI) supplemented with 7.5 μM of hemin and 2 μg/ml NAD with or without the addition of peptide for 24 hours. The number of viable cells for every reaction mixture was then determined by serially diluting and spotting 10-μl aliquots in triplicates on BHI agar plates supplemented with 15 μM hemin and 3 μM NAD. Porphyromonas gingivalis 2561 was obtained from ATCC (33277). Pre-reduced, anaerobically sterilized Brucella Broth and BRU—Brucella Blood Agar—were purchased from Anaerobe systems (CA, USA). They were opened just before use. Static cultures and plates were incubated at 37° C. in an incubation chamber from BD GasPak™ EZ Container Systems. Anaerobic conditions were maintained by using BD BBL CO2 gas generators and BD BB GasPak™ CO2 indicators. Cultures were grown anaerobically in Brucella Broth with or without addition of peptides for 48 hours and viable cells for every reaction mixture were then determined by serially diluting and spotting 10-μ1 aliquots in triplicates on Brucella Blood Agar.

Aβ-heme complex = target: T2, Aβ-heme complex (Homo sapiens, UniProt P05067); assay: UV-Vis spectrum of Aβ-heme complex with NCR247; type: binding
T2 construct: equimolar addition of NCR247 to the Aβ (1-42) amyloid peptide-heme complex; purchased Genscript
Description: FIG. 4. […] In a, b and e, data are presented as mean of three independent replicates ±s.d. In a and b ****P<0.0001 vs untreated sample; two-way analysis of variance (ANOVA) with multiple comparisons.
UV-VIS spectroscopy: All absorption spectra were collected in a Tecan Spark™ 10 M microplate reader using black polystyrene 96-well plates. Absorbance from 300 nm to 700 nm was recorded with a 5 nm interval after an initial shaking at 100 rpm for 15 secs. Heme binding to synthesized peptide: Water (pH 7.4) was used in all reactions and was first added to the wells. Peptides solubilized in water were added and then heme solubilized in 0.1 M NaOH was added, mixed thoroughly and measurements were taken immediately. Peptide and heme volume were kept to a maximum of 5 ul in volume. For all the absorption curves (except Extended FIG. 3a) […] was used. The same was also repeated with 0.1 M Tris buffer (pH 7.4) as a base buffer instead of water.

[2] = Peroxidase assay of heme on TMB; type: biochemical; settings: 5 μM NCR247 + 5 μM heme
Description: Peroxidase assay: Pierce TMB Substrate Kit was used to measure the peroxidase activity of the heme and equimolar NCR247 was added to heme according to the manufacturer's instructions. In short, 100 μL of TMB substrate solution (1:1 of TMB substrate and Peroxide solution) was added to 96 well black, polystyrene flat bottomed, non-treated, sterile plates. 5 μM heme or 5 μM NCR247+5 μM heme was added to the wells and the progression of the reaction was measured in a Tecan Spark™ plate reader. UV-Vis absorption values at 370 nm and 652 nm are noted every minute over a time period of 16 mins.

ribosomal machinery = assay: In-vitro translation assay, GFP production; type: biochemical; settings: increasing concentrations; fluorescence and western blot; listed as L-NCR247
Text: FIG. 19. Interaction of NCR247 with ribosomal machinery leads to modification in translational capability. (A) In-vitro translation assay to measure GFP production with increasing concentrations of L or D-NCR247. […] (B) Western blot to measure the amount of GFP produced using Anti-GFP antibody.
Interaction of NCR247 with ribosomal machinery leads to modification in translational capability. To see if this is due to chiral interaction, we performed in-vitro translation assay and used GFP production and measured fluorescence as a read out. We also performed a western blot to measure the amount of GFP produced using Anti-GFP antibody.

T1 sequence (P05067 672-713 limits assumed, one chain of several): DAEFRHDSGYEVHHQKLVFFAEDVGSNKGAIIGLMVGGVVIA
T2 sequence (P05067 672-713, one chain of several): as the sequence (P05067 672-713 limits assumed, one chain of several) above

## RNGCIVDPRCPYQQCRRPLYCRRR [NCR247]
Aβ (1-42)-heme complex
  peroxidase activity of Aβ (1-42)-heme complex: quenches its peroxidase activity
[1]; biotinylated heme as ligand, peptide as analyte
  Kd: ~1 nM
[1]; compared with NCR247 (L-enantiomer)
  heme binding affinity, in words: binds heme with nanomolar affinity
Porphyromonas gingivalis
  growth / viable cell number of P. gingivalis: can prevent the growth
Porphyromonas gingivalis; listed as L-NCR247
  growth / viable cell number of P. gingivalis: Reduction of viable cell number
Aβ-heme complex
  removal of heme from Aβ-heme complex: can strip the heme out of the Aβ-heme complex
[2]
  peroxidase activity of heme: intrinsic peroxidase activity of heme is quenched
Ribosomal machinery
  production of GFP: inhibition of production of GFP; also recorded: Fluorescence units decreased

Source: patent US12065468B2, “Heme-binding small peptide” (priority 2021, dated 2024)
